Reference: PubChem BioAssay AID1259407 (Chemical Carcinogenesis Research Information System (CCRIS), 2018)
Active and inactive are the calls of the source. How the calls were made is not given here.

Tested on: CCRIS mutagenicity, Ames/micronucleus/aberration tests
Test: CCRIS mutagenicity studies
[1] = Test System: AMES SALMONELLA TYPHIMURIUM, Strain/Indicator: TA100, Metabolic Activation: NONE, Method: PREINCUBATION
[2] = Test System: AMES SALMONELLA TYPHIMURIUM, Strain/Indicator: TA98, Metabolic Activation: NONE, Method: STANDARD PLATE
[3] = Test System: AMES SALMONELLA TYPHIMURIUM, Strain/Indicator: TA98, Metabolic Activation: RAT, LIVER, S-9, AROCLOR 1254, Method: STANDARD PLATE
[4] = Test System: AMES SALMONELLA TYPHIMURIUM, Strain/Indicator: TA100, Metabolic Activation: NONE, Method: STANDARD PLATE
[5] = Test System: AMES SALMONELLA TYPHIMURIUM, Strain/Indicator: TA100, Metabolic Activation: RAT, LIVER, S-9, AROCLOR 1254, Method: STANDARD PLATE
[6] = Test System: AMES SALMONELLA TYPHIMURIUM, Strain/Indicator: TA1537, Metabolic Activation: RAT, LIVER, S-9, AROCLOR 1254, Method: STANDARD PLATE

CC(O)CN(CC(O)CO)N=O (stereo not given)
mutagenic call (Test System: AMES SALMONELLA TYPHIMURIUM, Strain/Indicator: TA100, Metabolic Activation: HAMSTER, LIVER, S-9, 3-METHYLCHOLANTHRENE, Method: PREINCUBATION): inactive; negative | mutagenic call (Test System: AMES SALMONELLA TYPHIMURIUM, Strain/Indicator: TA100, Metabolic Activation: HAMSTER, LIVER, S-9, PHENOBARBITAL, Method: PREINCUBATION): active; positive | mutagenic call (Test System: AMES SALMONELLA TYPHIMURIUM, Strain/Indicator: TA100, Metabolic Activation: HAMSTER, LIVER, S-9, Method: PREINCUBATION): inactive; negative | mutagenic call (Test System: AMES SALMONELLA TYPHIMURIUM, Strain/Indicator: TA100, Metabolic Activation: MOUSE, LIVER, S-9, 3-METHYLCHOLANTHRENE, Method: PREINCUBATION): inactive; negative | mutagenic call (Test System: AMES SALMONELLA TYPHIMURIUM, Strain/Indicator: TA100, Metabolic Activation: MOUSE, LIVER, S-9, PHENOBARBITAL, Method: PREINCUBATION): active; positive | mutagenic call (Test System: AMES SALMONELLA TYPHIMURIUM, Strain/Indicator: TA100, Metabolic Activation: MOUSE, LIVER, S-9, Method: PREINCUBATION): inactive; negative | mutagenic call [1]: inactive; negative | mutagenic call (Test System: AMES SALMONELLA TYPHIMURIUM, Strain/Indicator: TA100, Method: PREINCUBATION): active; positive

CC1CNCC(C)O1 (stereo not given)
mutagenic call (Test System: AMES SALMONELLA TYPHIMURIUM, Strain/Indicator: TA98, Metabolic Activation: HAMSTER, LIVER, S-9, AROCLOR 1254, Method: PREINCUBATION): inactive; negative | mutagenic call (Test System: AMES SALMONELLA TYPHIMURIUM, Strain/Indicator: TA98, Metabolic Activation: NONE, Method: PREINCUBATION): inactive; negative | mutagenic call (Test System: AMES SALMONELLA TYPHIMURIUM, Strain/Indicator: TA98, Metabolic Activation: RAT, LIVER, S-9, AROCLOR 1254, Method: PREINCUBATION): inactive; negative | mutagenic call (Test System: AMES SALMONELLA TYPHIMURIUM, Strain/Indicator: TA100, Metabolic Activation: HAMSTER, LIVER, S-9, AROCLOR 1254, Method: PREINCUBATION): inactive; negative | mutagenic call [1]: inactive; negative | mutagenic call (Test System: AMES SALMONELLA TYPHIMURIUM, Strain/Indicator: TA100, Metabolic Activation: RAT, LIVER, S-9, AROCLOR 1254, Method: PREINCUBATION): inactive; negative | mutagenic call (Test System: AMES SALMONELLA TYPHIMURIUM, Strain/Indicator: TA1537, Metabolic Activation: HAMSTER, LIVER, S-9, AROCLOR 1254, Method: PREINCUBATION): inactive; negative | mutagenic call (Test System: AMES SALMONELLA TYPHIMURIUM, Strain/Indicator: TA1537, Metabolic Activation: NONE, Method: PREINCUBATION): inactive; negative | mutagenic call (Test System: AMES SALMONELLA TYPHIMURIUM, Strain/Indicator: TA1537, Metabolic Activation: RAT, LIVER, S-9, AROCLOR 1254, Method: PREINCUBATION): inactive; negative

C=CC(=O)OCC(CC)(COC(=O)C=C)COC(=O)C=C
mutagenic call (End Point: In vivo micronucleus, Test System: Peripheral blood normochromatic erythrocytes, Species: Mouse, Strain/Sex: B6C3F1/Female, Route: Dermal): inactive; negative | mutagenic call (End Point: In vivo micronucleus, Test System: Peripheral blood normochromatic erythrocytes, Species: Mouse, Strain/Sex: B6C3F1/Male, Route: Dermal): inactive; negative | mutagenic call (End Point: In vivo micronucleus, Test System: Peripheral blood normochromatic erythrocytes, Species: Mouse, Strain/Sex: FVB.N/TgN (v-Ha-ras) Tg.AC hemizygous/Female, Route: Dermal): inactive; negative, purity 80% | mutagenic call (End Point: In vivo micronucleus, Test System: Peripheral blood normochromatic erythrocytes, Species: Mouse, Strain/Sex: FVB.N/TgN (v-Ha-ras) Tg.AC hemizygous/Male, Route: Dermal): inactive; negative | mutagenic call (Test System: AMES SALMONELLA TYPHIMURIUM, Strain/Indicator: TA98, Metabolic Activation: HAMSTER, LIVER, S-9, AROCLOR 1254, Method: STANDARD PLATE): inactive; negative | mutagenic call [2]: inactive; negative | mutagenic call [3]: inactive; negative | mutagenic call (Test System: AMES SALMONELLA TYPHIMURIUM, Strain/Indicator: TA100, Metabolic Activation: HAMSTER, LIVER, S-9, AROCLOR 1254, Method: STANDARD PLATE): inactive; negative | mutagenic call [4]: inactive; negative | mutagenic call [5]: inactive; negative | mutagenic call (Test System: AMES SALMONELLA TYPHIMURIUM, Strain/Indicator: TA1535, Metabolic Activation: HAMSTER, LIVER, S-9, AROCLOR 1254 (5-20%), Method: STANDARD PLATE): active; positive | mutagenic call (Test System: AMES SALMONELLA TYPHIMURIUM, Strain/Indicator: TA1535, Metabolic Activation: HAMSTER, LIVER, S-9, AROCLOR 1254, Method: STANDARD PLATE): active; positive | mutagenic call (Test System: AMES SALMONELLA TYPHIMURIUM, Strain/Indicator: TA1535, Metabolic Activation: NONE, Method: STANDARD PLATE): inactive; negative | mutagenic call (Test System: AMES SALMONELLA TYPHIMURIUM, Strain/Indicator: TA1537, Metabolic Activation: HAMSTER, LIVER, S-9, AROCLOR 1254, Method: STANDARD PLATE): inactive; negative | mutagenic call (Test System: AMES SALMONELLA TYPHIMURIUM, Strain/Indicator: TA1537, Metabolic Activation: NONE, Method: STANDARD PLATE): inactive; negative | mutagenic call [6]: inactive; negative | mutagenic call (Test System: CHINESE HAMSTER OVARY, Strain/Indicator: CHO-K1-BH4 (HGPRT)/6-THIOGUANINE, Metabolic Activation: NONE, Method: SUSPENSION/PLATE): inactive; negative | mutagenic call (Test System: CHINESE HAMSTER OVARY, Strain/Indicator: CHO-K1-BH4 (HGPRT), Metabolic Activation: NONE): active; positive | mutagenic call (Test System: CHINESE HAMSTER OVARY, Strain/Indicator: CHO-K1-BH4 (HGPRT), Metabolic Activation: NONE, Method: MONOLAYER): inactive; negative | mutagenic call (Test System: CHINESE HAMSTER OVARY, Strain/Indicator: CHO-K1-BH4 (HGPRT), Metabolic Activation: NONE, Method: SUSPENSION/PLATE): active; positive | mutagenic call (Test System: MOUSE LYMPHOMA, Strain/Indicator: L5178Y (TK+/TK-), Metabolic Activation: RAT, LIVER, S-9, AROCLOR 1254, Method: SUSPENSION/PLATE): inactive; negative | mutagenic call (Test System: Mouse lymphoma, Strain/Indicator: L5178Y (tk+/tk-), Metabolic Activation: None, Method: Suspension/plate): active; positive | mutagenic call (Test System: Mouse lymphoma, Strain/Indicator: L5178Y (tk+/tk-), Metabolic Activation: Rat, Liver, S-9, Aroclor 1254, Method: Suspension/plate): active; positive

[N-]=[N+]=O
mutagenic call (Test System: CHINESE HAMSTER V-79, Strain/Indicator: V-79/8-AZAGUANINE, Metabolic Activation: NONE, Method: STANDARD PLATE): active; positive

CC1=C[C@@H]2c3cccc4[nH]cc(c34)C[C@H]2N(C)C1
mutagenic call [3]: active; positive | mutagenic call [4]: inactive; negative | mutagenic call [5]: active; positive | mutagenic call [6]: inactive; negative

Clc1cc2ccccc2c2ccccc12
mutagenic call [2]: inactive; negative | mutagenic call [3]: active; positive | mutagenic call [4]: inactive; negative | mutagenic call [5]: inactive; negative

Cc1cccc2cc3c4c(cccc4c12)-c1ccccc1-3
mutagenic call (Test System: AMES SALMONELLA TYPHIMURIUM, Strain/Indicator: TA100, Metabolic Activation: RAT, LIVER, S-9, AROCLOR 1254): active; positive

OC1C=Cc2c(cc3ccc4cccc5ccc2c3c45)C1 (stereo not given)
mutagenic call [3]: active; positive

O=[N+]([O-])c1cc2cccc([N+](=O)[O-])c2c2ccccc12
mutagenic call (Test System: AMES SALMONELLA TYPHIMURIUM, Strain/Indicator: TA98(1,8-DNP6), Metabolic Activation: NONE, Method: STANDARD PLATE): active; positive | mutagenic call (Test System: AMES SALMONELLA TYPHIMURIUM, Strain/Indicator: TA98(NR), Metabolic Activation: NONE, Method: STANDARD PLATE): active; positive | mutagenic call [2]: active; positive | mutagenic call [4]: active; positive | mutagenic call (Test System: AMES SALMONELLA TYPHIMURIUM, Strain/Indicator: YG1021, Metabolic Activation: NONE, Method: STANDARD PLATE): active; positive | mutagenic call (Test System: AMES SALMONELLA TYPHIMURIUM, Strain/Indicator: YG1024, Metabolic Activation: NONE, Method: STANDARD PLATE): active; positive | mutagenic call (Test System: AMES SALMONELLA TYPHIMURIUM, Strain/Indicator: YG1026, Metabolic Activation: NONE, Method: STANDARD PLATE): active; positive | mutagenic call (Test System: AMES SALMONELLA TYPHIMURIUM, Strain/Indicator: YG1029, Metabolic Activation: NONE, Method: STANDARD PLATE): active; positive

CC(=O)N(Nc1ccc2c(c1)Cc1ccccc1-2)c1ccc2c(c1)Cc1ccccc1-2
mutagenic call [3]: active; positive
